In US9175024B2, “Platinum compound having amino or alkylamino-containing succinic acid derivatives as leaving group, preparation method thereof, and use thereof” (BEIJING FSWELCOME TECHNOLOGY DEVELOPMENT CO., LTD., priority 2011, dated 2015):

Columns and labels:
normal mice = assay: Acute toxic effect of platinum complex on normal mice (LD50, single intravenous administration); assay type: in vivo, Kunming mice; settings: single intravenous administration in 5% glucose solution, 14 days observation, Bliss method
Description: (§1) Kunming mice at 4˜6 weeks old and at the weight of 18˜22 g were taken, 50% male and 50% female. Embodiment platinum compound was dissolved with 5% glucose solution. […] Mortality and toxicity were observed after administration, totally observing 14 days, LD50 value was calculated with Bliss method according to mortality.

Lewis lung cancer = assay: MTT cytotoxicity, Lewis lung cancer; assay type: cell-based; settings: n = 6, Lewis lung cancer
Description: (§2) Several kinds of tumor cells in exponential growth phase were prepared into single cell suspension, inoculated on 96 pore plat at the density of 4×10^4/hole, cultivated for 24 hours to enable to adhere to wall with 1640 culture medium containing 10% fetal calf serum (complete medium) at 37° C.; the final culture volume was 100 μl. Cell morphology was observed after culture for 24 hours.

breast cancer MCF-7 = assay: In vivo antitumor activity, breast cancer MCF-7 in nude mice; settings: MCF-7 in female nude mice, 10 mg (platinum)/kg, once a week, 4 times, tumor weighed 4 weeks later
Colon cancer SW480 = assay: MTT cytotoxicity, colon cancer SW480; assay type: cell-based; settings: n = 6, Colon cancer SW480
Description: as §2

[1] = Solubility in water of the embodiment and contrast compounds
[2] = test system: Pulmonary epithelial cell BEAS-2B; assay: MTT cytotoxicity, pulmonary epithelial cell BEAS-2B; assay type: cell-based; settings: n = 6, Pulmonary epithelial cell BEAS-2B
Description: as §2

Lung cancer H292 = assay: MTT cytotoxicity, lung cancer H292; assay type: cell-based; settings: n = 6, Lung cancer H292
Description: as §2

Testis cell ST = assay: MTT cytotoxicity, testis cell ST; assay type: cell-based; settings: n = 6, Testis cell ST
Description: as §2

Gastric cancer MGC803 = assay: MTT cytotoxicity, gastric cancer MGC803; assay type: cell-based; settings: n = 6, Gastric cancer MGC803
Description: as §2

Esophagus cancer ECA109 = assay: MTT cytotoxicity, esophagus cancer ECA109; assay type: cell-based; settings: n = 6, Esophagus cancer ECA109
Description: as §2

[3] = Acute toxic effect of platinum complex on normal mice (LD50, single intravenous administration); assay type: in vivo, Kunming mice; settings: both sexes, Kunming, mouse, in vivo; single intravenous administration in 5% glucose solution, 14 days observation, Bliss method
Description: as §1

physchem = settings: water

CCN(CC)CCCC(CC(=O)[O-])C(=O)[O-].NC1CCCC1N.[Pt+2] (racemic) [Compound 15, [2-(3-diethylamino propyl)-succinato].[Cis-(1,2-trans-cyclopentyldiamine)]platinum (II)]
LD50 value (normal mice): 0.528 mmol/kg | IC50 (Lewis lung cancer): 51 µM | Tumor inhibition rate (x ± SD) (breast cancer MCF-7): 73.5 ± 12.31 9% | IC50 (Colon cancer SW480): 32 µM | solubility [1]: 151 mg/mL | IC50 [2]: 15 µM | IC50 (Lung cancer H292): 145 µM

CCN(CC)CCCC(CC(=O)[O-])C(=O)[O-].NC1CC1N.[Pt+2] (racemic) [Compound 17, [2-(3-diethylamino propyl)-succinato].[Cis-(1,2-trans-cyclopropyldiamine)]platinum (II)]
LD50 value (normal mice): 0.581 mmol/kg | IC50 (Testis cell ST): 51 µM | Tumor inhibition rate (x ± SD) (breast cancer MCF-7): 82.5 ± 11.34 9% | IC50 (Gastric cancer MGC803): 13 µM | IC50 (Esophagus cancer ECA109): 72 µM | solubility [1]: 195 mg/mL | IC50 (Lung cancer H292): 31 µM

CN(C)CCC(CC(=O)[O-])C(=O)[O-].NCC1CCC1CN.[Pt+2] (racemic) [Compound 23, [2-(2-dimethylaminoethyl)-succinato].[Cis-1,4-(trans-2,3-cyclobutyl)-butyldiamine]platinum (II)]
LD50 value (normal mice): 0.512 mmol/kg | IC50 (Testis cell ST): 18 µM | Tumor inhibition rate (x ± SD) (breast cancer MCF-7): 85.1 ± 10.37 9% | IC50 (Gastric cancer MGC803): 146 µM | IC50 (Esophagus cancer ECA109): 102 µM | solubility [1]: 165 mg/mL | IC50 (Lung cancer H292): 51 µM

CCN(CC)CCC(CC(=O)[O-])C(=O)[O-].NCC1CCC1CN.[Pt+2] (racemic) [Compound 24, [2-(2-diethylamino ethyl)-succinato].[Cis-1,4-(trans-2,3-cyclobutyl)-butanediamine]platinum (II)]
LD50 value (normal mice): 0.525 mmol/kg | IC50 (Testis cell ST): 12 µM | Tumor inhibition rate (x ± SD) (breast cancer MCF-7): 69.3 ± 10.13 9% | IC50 (Gastric cancer MGC803): 119 µM | IC50 (Esophagus cancer ECA109): 71 µM | solubility [1]: 176 mg/mL | IC50 (Lung cancer H292): 25 µM

CNCCC1CC(=O)[O][Pt]([NH2])([NH2])[O]C1=O (stereo not drawn) [Compound 1, [2-(2-methylaminoethyl)-succinato].[Cis-diamine]platinum (II)]
LD50 at 14 days [3]: 523 µmol/kg | solubility (physchem): 208 mg/mL

CN(C)CCC1CC(=O)[O][Pt]([NH2])([NH2])[O]C1=O (stereo not drawn) [Compound 2, [2-(2-dimethylaminoethyl)-succinato].[Cis-diamine]platinum (II)]
LD50 at 14 days [3]: 511 µmol/kg | solubility (physchem): 176 mg/mL

CN(C)CCCC1CC(=O)[O][Pt]([NH2])([NH2])[O]C1=O (stereo not drawn) [Compound 3, [2-(3-dimethylamino propyl)-succinato].[Cis-diamine]platinum (II)]
LD50 at 14 days [3]: 521 µmol/kg | solubility (physchem): 150 mg/mL

NCCCC1CC(=O)[O][Pt]([NH2])([NH2])[O]C1=O (stereo not drawn) [Compound 4, [2-(3-amino propyl)-succinato].[Cis-diamine]platinum (II)]
LD50 at 14 days [3]: 556 µmol/kg | solubility (physchem): 155 mg/mL

CCN(CC)CCC1CC(=O)[O][Pt]([NH2])([NH2])[O]C1=O (stereo not drawn) [Compound 5, [2-(2-diethylaminoethyl)-succinato].[Cis-diamine]platinum (II)]
LD50 at 14 days [3]: 652 µmol/kg | solubility (physchem): 166 mg/mL

CCCN(CCC)CCCC1CC(=O)[O][Pt]([NH2])([NH2])[O]C1=O (stereo not drawn) [Compound 6, [2-(3-di-n-propylamino propyl)-succinato].[Cis-diamine]platinum (II)]
LD50 at 14 days [3]: 449 µmol/kg | solubility (physchem): 130 mg/mL

[NH2][Pt]1([NH2])[O]C(=O)CC(CCCN2CCCCC2)C(=O)[O]1 (stereo not drawn) [Compound 7, [2-(3-(1-piperidyl)-propyl)-succinato].[Cis-diamine]platinum (II)]
LD50 at 14 days [3]: 623 µmol/kg | solubility (physchem): 139 mg/mL

[NH2][Pt]1([NH2])[O]C(=O)CC(CCCN2CCCC2)C(=O)[O]1 (stereo not drawn) [Compound 8, [2-(3-(1-pyrrolidyl)-propyl)-succinato].[Cis-diamine]platinum (II)]
LD50 at 14 days [3]: 605 µmol/kg | solubility (physchem): 135 mg/mL

CCCN(CCC)CCCC(CC(=O)[O-])C(=O)[O-].N[C@@H]1CCCC[C@H]1N.[Pt+2] (stereo not drawn) [Compound 14, [2-(3-di-n-propylamino propyl)-succinato].[Cis-(1,2-trans-cyclohexyldiamine)]platinum (II)]
LD50 value (normal mice): 0.467 mmol/kg | IC50 (Lewis lung cancer): 37 µM | Tumor inhibition rate (x ± SD) (breast cancer MCF-7): 70.1 ± 11.55 9% | IC50 (Colon cancer SW480): 51 µM | IC50 [2]: 8 µM | IC50 (Lung cancer H292): 9 µM

CCN(CC)CCCC1CC(=O)[O][Pt]2([NH]C3CCC3[NH]2)[O]C1=O (stereo not drawn) [Compound 16, [2-(3-diethylamino propyl)-succinato].[Cis-(1,2-trans-cyclobutyldiamine)]platinum (II)]
LD50 value (normal mice): 0.623 mmol/kg | IC50 (Lewis lung cancer): 33 µM | Tumor inhibition rate (x ± SD) (breast cancer MCF-7): 70.4 ± 10.81 9% | IC50 (Colon cancer SW480): 84 µM | solubility [1]: 186 mg/mL | IC50 [2]: 45 µM | IC50 (Lung cancer H292): 8 µM

CN(C)CCC(CC(=O)[O-])C(=O)[O-].NCCN.[Pt+2] (stereo not drawn) [Compound 18, [2-(2-dimethylaminoethyl)-succinato].[Cis-1,2-ethyldiamine]platinum (II)]
LD50 value (normal mice): 0.532 mmol/kg | IC50 (Testis cell ST): 10 µM | Tumor inhibition rate (x ± SD) (breast cancer MCF-7): 71.8 ± 12.01 9% | IC50 (Gastric cancer MGC803): 121 µM | IC50 (Esophagus cancer ECA109): 62 µM | solubility [1]: 226 mg/mL | IC50 (Lung cancer H292): 31 µM

CCN(CC)CCC1CC(=O)[O][Pt]2([NH]CCC[NH]2)[O]C1=O (stereo not drawn) [Compound 19, [2-(2-diethylaminoethyl)-succinato].[Cis-1,3-propyldiamine]platinum (II)]
LD50 value (normal mice): 0.454 mmol/kg | IC50 (Testis cell ST): 12 µM | Tumor inhibition rate (x ± SD) (breast cancer MCF-7): 65.3 ± 9.15 9% | IC50 (Gastric cancer MGC803): 117 µM | IC50 (Esophagus cancer ECA109): 8 µM | solubility [1]: 200 mg/mL | IC50 (Lung cancer H292): 102 µM

CCCN(CCC)CCCC(CC(=O)[O-])C(=O)[O-].NCCCCN.[Pt+2] (stereo not drawn) [Compound 20, [2-(3-di-n-propylaminopropyl)-succinato].[Cis-1,4-butyldiamine]platinum (II)]
LD50 value (normal mice): 0.513 mmol/kg | IC50 (Testis cell ST): 22 µM | Tumor inhibition rate (x ± SD) (breast cancer MCF-7): 66.7 ± 10.61 9% | IC50 (Gastric cancer MGC803): 66 µM | IC50 (Esophagus cancer ECA109): 13 µM | solubility [1]: 162 mg/mL | IC50 (Lung cancer H292): 59 µM

CCN(CC)CCC1CC(=O)[O][Pt]2([NH]C(CO)C(CO)[NH]2)[O]C1=O (stereo not drawn) [Compound 21, [2-(2-diethyl amino ethyl)-succinato].[Cis-1,2-(1,2-dihydroxymethyl)-ethyldiamine]platinum (II)]
LD50 value (normal mice): 0.681 mmol/kg | IC50 (Testis cell ST): 143 µM | Tumor inhibition rate (x ± SD) (breast cancer MCF-7): 68.3 ± 10.88 9% | IC50 (Gastric cancer MGC803): 109 µM | IC50 (Esophagus cancer ECA109): 84 µM | solubility [1]: 176 mg/mL | IC50 (Lung cancer H292): 21 µM

CN(C)CCC1CC(=O)[O][Pt]2([NH]CC(CO)(CO)C[NH]2)[O]C1=O (stereo not drawn) [Compound 22, [2-(2-dimethyl amino ethyl)-succinato].[Cis-1,3-(2,2-dihydroxytmethyl)-propyldiamine]platinum (II)]
LD50 value (normal mice): 0.452 mmol/kg | IC50 (Testis cell ST): 52 µM | Tumor inhibition rate (x ± SD) (breast cancer MCF-7): 70.8 ± 10.12 9% | IC50 (Gastric cancer MGC803): 15 µM | IC50 (Esophagus cancer ECA109): 17 µM | solubility [1]: 205 mg/mL | IC50 (Lung cancer H292): 65 µM

CCN(CC)CCC(CC(=O)[O-])C(=O)[O-].NC1CCC(N)CC1.[Pt+2] (stereo not drawn) [Compound 25, [2-(2-diethylaminoethyl)-succinato].[Cis-1,4-cyclohexyldiamine]platinum (II)]
LD50 value (normal mice): 0.459 mmol/kg | IC50 (Testis cell ST): 102 µM | Tumor inhibition rate (x ± SD) (breast cancer MCF-7): 66.9 ± 9.49 9% | IC50 (Gastric cancer MGC803): 96 µM | IC50 (Esophagus cancer ECA109): 116 µM | solubility [1]: 125 mg/mL | IC50 (Lung cancer H292): 106 µM

CCN(CC)CCC1CC(=O)[O][Pt]2([NH]CC3(CCOCC3)C[NH]2)[O]C1=O (stereo not drawn) [Compound 26, [2-(2-diethylaminoethyl)-succinato].[Cis-1,3-(2,2-(4-oxacyclohexyl))-propyldiamine]platinum (II)]
LD50 value (normal mice): 0.526 mmol/kg | IC50 (Testis cell ST): 44 µM | Tumor inhibition rate (x ± SD) (breast cancer MCF-7): 76.4 ± 14.85 9% | IC50 (Gastric cancer MGC803): 35 µM | IC50 (Esophagus cancer ECA109): 32 µM | solubility [1]: 165 mg/mL | IC50 (Lung cancer H292): 47 µM

CCN(CC)CCCCC(CC(=O)[O-])C(=O)[O-].NCCN.[Pt+2] (stereo not drawn) [Compound 28, [2-(4-diethylamino butyl)-succinato].[Cis-1,2-ethylenediamine]platinum (II) toluenesulfonate]
LD50 value (normal mice): 0.612 mmol/kg | IC50 (Testis cell ST): 138 µM | Tumor inhibition rate (x ± SD) (breast cancer MCF-7): 76.4 ± 9.78 9% | IC50 (Gastric cancer MGC803): 162 µM | IC50 (Esophagus cancer ECA109): 56 µM | solubility [1]: 187 mg/mL | IC50 (Lung cancer H292): 99 µM

CCN(CC)CCCCC1CC(=O)[O][Pt]2([NH]C3CCCCC3[NH]2)[O]C1=O.O=P(O)(O)O (stereo not drawn) [Compound 29, [2-(4-diethylamino butyl)-succinato].[Cis-(1,2-trans-cyclohexyldiamine)]platinum (II) phosphate]
LD50 value (normal mice): 0.698 mmol/kg | IC50 (Testis cell ST): 5 µM | Tumor inhibition rate (x ± SD) (breast cancer MCF-7): 82.2 ± 10.82 9% | IC50 (Gastric cancer MGC803): 7 µM | IC50 (Esophagus cancer ECA109): 6 µM | IC50 (Lung cancer H292): 3 µM
